Tests used:
[1] = biological target: non-native GAT polypeptide 25-8H7 (glyphosate-N-acetyltransferase), SEQ ID NO: 907 (Bacillus licheniformis, UniProt Q65LG7, E119R/E14D/E65Q/E67K/E68K/G37R/G38S/I132T/I135V/I15L/I19V/I53V/I91V/K101R/K144R/K58Q/L105M/L106I/L145I/L26I/L36T/L97I/M75V/R47G/R92K/T33S/T89S/V114A/Y130F/Y31F/Y45F); assay: GAT activity with respect to glyphosate, aspartate and serine (Example 29, Table 21); conditions: 25 mM Hepes, pH 6.8, 10% ethylene glycol
[2] = biological target: T1, Bacillus licheniformis strain B6 glyphosate-N-acetyltransferase (GAT), native, SEQ ID NO:7 (Bacillus paralicheniformis, UniProt A0AAW6KBE1); assay: Apparent KM and kcat of purified GAT (Example 2); type: biochemical
T1 construct: untagged
Experimental: Lysis of the cells was effected by the addition of 1 ml of the following buffer to 0.2 g of cells: 25 mM HEPES, pH 7.3, 100 mM KCl and 10% methanol (HKM) plus 0.1 mM EDTA, 1 mM DTT, 1 mg/ml chicken egg lysozyme, and a protease inhibitor cocktail obtained from Sigma and used according to the manufacturer's recommendations. After 20 minutes incubation at room temperature (e.g., 22-25° C.), lysis was completed with brief sonication. The lysate was centrifuged and the supernatant was desalted by passage through Sephadex G25 equilibrated with HKM. Partial purification was obtained by affinity chromatography on CoA Agarose (Sigma). The column was equilibrated with HKM and the clarified extract was allowed to pass through under hydrostatic pressure.
Purification to homogeneity was obtained by gel filtration of the partially purified protein through Superdex 75 (Pharmacia).
Initial reaction rates were determined using mass spectrometric detection of N-acetyl glyphosate. Five μl were repeatedly injected into the instrument and reaction rates were obtained by plotting reaction time vs area of the integrated peak (FIG. 6).

[3] = system: native or low activity GAT enzymes (glyphosate-N-acetyltransferase); assay: Kinetics typical of native or low activity GAT enzymes (Example 4); type: biochemical
[4] = system: high activity GAT enzymes (glyphosate-N-acetyltransferase); assay: Kinetics typical of high activity GAT enzymes (Example 5); type: biochemical
[5] = system: GAT polypeptide (glyphosate-N-acetyltransferase), SEQ ID NO:445; assay: Standard spectrophotometric kcat and KM determination (Example 7); type: biochemical; conditions: 20 mM HEPES pH 6.8, 10% ethylene glycol, 0.2 mM acetyl CoA, about 23° C.
Experimental: (§1) KM was calculated from the initial reaction rates obtained from concentrations of glyphosate ranging from 0.125 to 10 mM, using the Lineweaver-Burke transformation of the Michaelis-Menten equation. kcat/KM was determined by dividing the value determined for kcat by the value determined for KM.

[6] = system: GAT 20-30C6 (SEQ ID NO: 683) variant D34A; assay: GAT kinetics, 0 KCl, Bradford (Example 20, Table 12); type: biochemical; conditions: Bradford protein assay
Experimental: as §1
(§2) The amino acids aspartic acid (Asp, D), histidine (His, H) and cysteine (Cys, C) are known to be associated with the active sites of various acetyltransferase enzymes. To determine if any such residues play a role in GAT activity, all D, C, and H residues of GAT20-30C6 (SEQ ID NO:683) were individually mutated to alanine (Ala, A) and the mutated enzymes assayed for N-acetylglyphosate activity.

[7] = system: GAT 20-30C6 (SEQ ID NO: 683) variant H138A; assay: as above; type: biochemical; conditions: Bradford protein assay
Experimental: as §1, §2

[8] = system: GAT 20-30C6 (SEQ ID NO: 683) variant H138R; assay: as above; type: biochemical; conditions: Bradford protein assay
Experimental: as §1, §2

[9] = system: GAT 20-30C6 (SEQ ID NO: 683) variant H41A; assay: as above; type: biochemical; conditions: Bradford protein assay
Experimental: as §1, §2

[10] = system: GAT 20-30C6 (evolved glyphosate-N-acetyltransferase), SEQ ID NO: 683; assay: as above; type: biochemical; conditions: Bradford protein assay
Experimental: as §1, §2

[11] = system: GAT 20-30C6 (SEQ ID NO: 683) variant H138S; assay: as above; type: biochemical; conditions: Bradford protein assay
[12] = system: Nicotiana tabacum L. Xanthi leaf explants; assay: Tobacco shoot regeneration with glyphosate selection after Agrobacterium-mediated transformation; type: cell-based; conditions: explants lacking a GAT gene
Description: Agrobacterium-mediated transformation of plant cells occurs at low efficiencies. To allow propagation of transformed cells while inhibiting proliferation of non-transformed cells, a selectable marker is needed. Antibiotic markers for kanamycin and hygromycin and the herbicide modifying gene bar, which detoxifies the herbicidal compound phosphinothricin, are examples of selectable markers used in plants (Methods in Molecular Biology, 1995, 49:9-18). […] An evolved GAT gene (0—5B8), SEQ ID NO:190, was cloned between a plant promoter (enhanced strawberry vein banded virus) and a […] terminator and introduced into the T-DNA region of the binary vector pMAXY3793 suitable for transformation of plant cells via Agrobacterium tumefaciens EHA105 as shown in FIG. 12. A screenable GUS marker was present in the T-DNA to allow confirmation of transformation. Transgenic tobacco shoots were generated using glyphosate as the only selecting agent.
Axillary buds of Nicotiana tabacum L. Xanthi were subcultured on half-strength MS medium with sucrose (1.5%) and Gelrite (0.3%) under 16-h light (35-42 μEinsteins m^−2 s^−1, cool white fluorescent lamps) at 24° C. every 2-3 weeks. Young leaves were excised from plants after 2-3 weeks subculture and were cut into 3×3 mm segments. A. tumefaciens EHA 105 was inoculated into LB medium and grown overnight to a density of A600=1.0. […]

[13] = Transfer of the propionyl group from propionyl CoA to glyphosate, DTNB detection; type: biochemical; conditions: 1 mM propionyl CoA, 5 mM glyphosate or no glyphosate, 30 minutes
Experimental: The ability of GAT variants (B6 (SEQ ID NO:7), 0—6D10 (SEQ ID NO:448), 17-15H3 (SEQ ID NO:601), and 20-8H12c (SEQ ID NO:817)) to transfer the propionyl group from propionyl CoA to glyphosate was tested in reaction mixtures containing 5 mM glyphosate or no glyphosate. Propionyl CoA was present at 1 mM. After 30 minutes the reactions were terminated and the presence of free […] was determined by the addition of DTNB.

[14] = GAT activity with substrate phospho-L-serine (DTNB); type: biochemical
Experimental: GAT activity of several GAT polypeptides of the present invention was evaluated with respect to a number of amino acid substrates. The GAT polypeptide, AcCoA and amino substrate were incubated in 25 mM Hepes, pH 6.8, 10% ethylene glycol in the wells of a 96-well polystyrene plate. After 30 minutes, the reactions were stopped by the addition of 30 μl of 10 mM 5,5′-dithiobis-2-nitrobenzoate (DTNB) in 500 mM Tris, pH 7.5. After 2 minutes, absorbance was read at 412 nm in a Spectramax Plus plate reader (Molecular Devices, Sunnyvale, Calif.).

[15] = Kinetics of D, C, H residue mutants of GAT20-30C6; type: biochemical; conditions: 0 KCl; Bradford protein assay
Description: as §2

Chain of non-native GAT polypeptide 25-8H7 (glyphosate-N-acetyltransferase), SEQ ID NO: 907 (Q65LG7 entry or part of it with the stated changes): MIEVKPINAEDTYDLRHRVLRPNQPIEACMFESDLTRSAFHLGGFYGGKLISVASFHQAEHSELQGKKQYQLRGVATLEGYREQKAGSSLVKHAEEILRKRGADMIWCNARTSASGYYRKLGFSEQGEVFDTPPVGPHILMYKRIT

## N[C@@H](CO)C(=O)O [Serine, L-serine]
[1]
  kcat ± SE: 388 ± 18.5 min⁻¹

## O=C(O)CNCP(=O)(O)O [glyphosate, N-phosphonomethylglycine]
[2]; from Vmax at known enzyme concentration, 5 mM glyphosate, varying Acetyl CoA
  kcat: 6 min⁻¹
[2]; read-out: KM for glyphosate, apparent, saturating (200 μM) Acetyl CoA, 5 mM morpholine pH 7.7, 20% ethylene glycol
  Km: 2.9 ± 0.2 mM
[3]
  kcat: approximately 1 min^−1
[3]; read-out: KM for glyphosate
  Km: 1.5 to 10 mM
[4]
  Km: < 100 µM
  kcat: up to 400 min^−1
[5]
  Km: 500 µM
  kcat: 322 min⁻¹
[6]
  Km: 2.33 mM
  kcat: 127 min⁻¹
[7]
  kcat: <0.02 min⁻¹
[8]
  Km: 17.8 mM
  kcat: 44.3 min⁻¹
[9]
  Km: 4.8 mM
  kcat: 208 min⁻¹
[10]
  Km: 182 µM
  kcat: 386 min⁻¹
[11]
  Km: 7.1 mM
  kcat: 5.35 min⁻¹

## O=C(O)CNCP(=O)(O)O [Glyphosate, N-phosphonomethylglycine]
[12]
  Glyphosate concentrations that completely inhibited any shoot formation: greater than 20 uM

B1: B6: native GAT enzyme isolated from B. licheniformis strain B6, SEQ ID NO:7 (protein)
chain: MIEVKPINAEDTYEIRHRILRPNQPLEACKYETDLLGGTFHLGGYYRDRLISIASFHQAEHSELEGQKQYQLRGMATLEGYREQKAGSTLIRHAEELLRKKGADLLWCNARTSVSGYYKKLGFSEQGGVYDIPPIGPHILMYKKLT
modifications: Unidentified microorganism derived from soil sample.; B6 GAT
[13]
  glyphosate-dependent hydrolysis of propionyl CoA: showed glyphosate-dependent hydrolysis of propionyl CoA
[14]
  activity with phospho-L-serine compared with glyphosate: about 2 times

B2: 20-30C6: evolved GAT enzyme, SEQ ID NO:683 (protein)
chain: MIEVKPINAEDTYELRHRVLRPNQPIEACMFESDLLRGAFHLGGFYGGKLISVASFHQAEHTELQGQKQYQLRGVATLEGYREQKAGSSLVKHAEEILRKRGADILWCNARTSASGYYKKLGFSEQGEVFDTPPVGPHILMYKRIT
modifications: D_GE002283_GAT20-30C6
[15]
  % kcat/Km of 20-30C6: 100%
